How the values were obtained:
Type in all cases: cell-based, mouse
[1] = test system: α7 integrin (LacZ reporter in α7βgal+/− myoblasts); experiment: Myoblast α7+/LacZ integrin FDG assay (Burkin assay in myoblasts, 96-well); conditions: α7+/LacZ myoblasts, 96-well
[2] = test system: α7 integrin (LacZ reporter in α7+/LacZ myotubes); experiment: Myotube α7 integrin FDG assay (Burkin assay in myotubes, 96-well); conditions: myotubes
[3] = test system: β-galactosidase in CMV-LacZ C2C12 myoblasts; experiment: CMV-LacZ secondary screen in C2C12 myoblasts (β-Gal stabilizing assay); conditions: CMV-LacZ C2C12 myoblasts
Method in brief: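 C2C12 myoblasts stably carrying a linearized CMV-driven LacZ construct, clone chosen by β-gal level in the myoblast FDG assay. Compounds tested in 96-well dose-response at 0.5, 1, 5, 10, 20 and 40 μM, N=2 replicates per point, to detect β-gal stabilization.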

[4] = test system: β-galactosidase in CMV-LacZ C2C12 myotubes; experiment: CMV-LacZ secondary screen in C2C12 myotubes (β-Gal stabilizing assay); conditions: C2C12 CMV-LacZ myotubes, fold relative to DMSO
Method in brief: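 Dose-response runs at 0.5–40 μM (0.5, 1, 5, 10, 20, 40 μM; N=2 per point) used a clonal C2C12 line carrying CMV-LacZ. Cells were assayed as myoblasts or as differentiated myotubes, and β-galactosidase levels were read with the FDG fluorogenic substrate.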

Row | SMILES | Burkin Assay in Myoblasts, signal relative to DMSO ([1]; 0.5 uM) | Burkin Assay in Myoblasts, signal relative to DMSO ([1]; 1 uM) | Burkin Assay in Myoblasts, signal relative to DMSO ([1]; 5 uM) | Burkin Assay in Myoblasts, signal relative to DMSO ([1]; 10 uM) | Burkin Assay in Myoblasts, signal relative to DMSO ([1]; 20 uM) | Burkin Assay in Myoblasts, signal relative to DMSO ([1]; 40 uM) | Burkin Assay in Myotubes, α7 integrin LacZ reporter signal relative to DMSO ([2]; 0.5 uM) | Burkin Assay in Myotubes, α7 integrin LacZ reporter signal relative to DMSO ([2]; 1 uM) | Burkin Assay in Myotubes, α7 integrin LacZ reporter signal relative to DMSO ([2]; 5 uM) | Burkin Assay in Myotubes, α7 integrin LacZ reporter signal relative to DMSO ([2]; 10 uM) | Burkin Assay in Myotubes, α7 integrin LacZ reporter signal relative to DMSO ([2]; 20 uM) | Burkin Assay in Myotubes, α7 integrin LacZ reporter signal relative to DMSO ([2]; 40 uM) | CMV-LACZ in Myoblasts (β-galactosidase activity relative to DMSO) ([3]; 0.5 uM) | CMV-LACZ in Myoblasts (β-galactosidase activity relative to DMSO) ([3]; 1 uM) | CMV-LACZ in Myoblasts (β-galactosidase activity relative to DMSO) ([3]; 5 uM) | CMV-LACZ in Myoblasts (β-galactosidase activity relative to DMSO) ([3]; 10 uM) | CMV-LACZ in Myoblasts (β-galactosidase activity relative to DMSO) ([3]; 20 uM) | CMV-LACZ in Myoblasts (β-galactosidase activity relative to DMSO) ([3]; 40 uM) | CMV-LACZ in Myotubes, signal relative to DMSO ([4]; 0.5 uM) | CMV-LACZ in Myotubes, signal relative to DMSO ([4]; 1 uM) | also measured
1 | CCc1ccc(S(=O)(=O)NCCOc2cccc3cccnc23)cc1 [MLS001034810-01] | 1.021 | 0.9975 | 1.375 | 1.191 | 0.8996 | 0.8407 | 1.035 | 1.07 | 1.403 | 1.165 | 1 | 0.7593 | 0.9698 | 0.9538 | 1.0948 | 0.9459 | 1.1193 | 0.7030 | 1.1000 | 1.7389 | CMV-LACZ in Myotubes, signal relative to DMSO ([4]; 5 uM): 0.9578; CMV-LACZ in Myotubes, signal relative to DMSO ([4]; 10 uM): 1.0965; CMV-LACZ in Myotubes, signal relative to DMSO ([4]; 20 uM): 1.0578; CMV-LACZ in Myotubes, signal relative to DMSO ([4]; 40 uM): 1.1344
2 | N#CC1=C2SCN(c3ccccc3)CN2C(=O)CC1c1cccs1 (stereo not drawn) [MLS000080654-01] | 0.9788 | 0.923 | 0.9235 | 0.9429 | 1.112 | 0.9166 | 1.067 | 1.092 | 0.9044 | 0.9707 | 0.7422 | 0.6217 | 1.1851 | 1.4314 | 1.0703 | 0.9345 | 1.0174 | 0.8815 | 1.1229 | 1.0086 | CMV-LACZ in Myotubes, signal relative to DMSO ([4]; 5 uM): 1.0335; CMV-LACZ in Myotubes, signal relative to DMSO ([4]; 10 uM): 1.0399; CMV-LACZ in Myotubes, signal relative to DMSO ([4]; 20 uM): 1.1871; CMV-LACZ in Myotubes, signal relative to DMSO ([4]; 40 uM): 1.4259
3 | Cn1cc(CN2CCC(C(=O)Nc3cccc(-c4cscn4)c3)CC2)cn1 [MLS001105912-01] | 1.162 | 1.057 | 1.029 | 1.246 | 0.6025 | 0.4631 | 0.9483 | 1.061 | 0.9467 | 1.1322 | 0.8299 | 1.003 | 1.0725 | 1.0321 | 1.0003 | 0.9597 | 0.5323 | 0.3873 | 1.1391 | 0.9618 | CMV-LACZ in Myotubes, signal relative to DMSO ([4]; 5 uM): 0.9313; CMV-LACZ in Myotubes, signal relative to DMSO ([4]; 10 uM): 1.0857; CMV-LACZ in Myotubes, signal relative to DMSO ([4]; 20 uM): 1.1910; CMV-LACZ in Myotubes, signal relative to DMSO ([4]; 40 uM): 1.8130
